Test results as given in patent US20040063643A1, “Bombesin antagonists” (Pfizer Inc., priority 2002, published 2004).

Key:
[1] = molecular target: T1, human bombesin BB1 receptors (Homo sapiens, UniProt P28336); assay: Bombesin BB1 receptor binding assay, [125I][6-14]Bombesin, CHO cell membranes; conditions: membranes from CHO cells expressing human BB1
T1 construct: expressed in transfected cells; host or cells: CHO cells
Description: The compounds of the present invention are a potent class of bombesin antagonists. Bombesin antagonism may be measured using the following binding assay using membranes from CHO cells expressing the human bombesin BB1 receptors.
Cells are maintained in Ham's F12 medium (Life Technologies Ltd, Cat No. 31765-027) supplemented with 10% FBS (Life Tech. Ltd., 10109-155) and 2 mM glutamine (or Glutamax in media). Cells are routinely passaged once weekly (split 1:5, approximate seeding density=1-4 million per […] flask), and fed every 2 days with fresh medium. Cells are frozen down (in Hams F12 containing 5% DMSO) 4-7 days after passaging and stored at −70° C. until required for use in binding experiments.
Frozen cells rapidly thawed and diluted with excess medium (each aliquot made up to 40 ml).
Cells harvested by centrifuging at 3000 g for 4 min at 21° C.
Cells resuspended in known volume of assay buffer, and cell count performed.
Membranes prepared by polytronning (setting 5, 10 secs). […]
(§1) For each assay plate, total (1% DMSO) and non-specific (1 μM, 1% DMSO), binding will be measured for the ligand on the receptor. Specific binding of the radioactive ligand to the receptor can thus be calculated to which specific binding of the radioactive ligand in the presence of a competing compound can be calculated and expressed as percentage inhibition of radioactive ligand binding.

[2] = molecular target: BB2 (Homo sapiens, UniProt P30550); assay: Bombesin BB2 receptor binding assay
Sequence of BB2 (P30550 whole entry): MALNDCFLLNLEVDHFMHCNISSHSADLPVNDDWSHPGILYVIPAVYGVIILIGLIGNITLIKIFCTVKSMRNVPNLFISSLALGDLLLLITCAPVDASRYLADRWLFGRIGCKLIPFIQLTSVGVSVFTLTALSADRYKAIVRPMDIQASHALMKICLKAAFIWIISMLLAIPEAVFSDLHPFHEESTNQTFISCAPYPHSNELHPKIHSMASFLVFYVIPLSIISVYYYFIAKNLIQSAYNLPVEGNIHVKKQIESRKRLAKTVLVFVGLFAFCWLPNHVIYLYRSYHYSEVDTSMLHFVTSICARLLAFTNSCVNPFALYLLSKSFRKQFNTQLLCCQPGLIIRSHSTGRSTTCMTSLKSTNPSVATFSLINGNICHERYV
Description: Drug dilutions are performed using the Tecan Genesis/Miniprep handling stations. Assays are set up as follows
25 μl test compound/total/NSB
200 μl cell memb preparation
Assay additions using deep well Multidrop.
Non-specific binding is defined by 1 μM Bombesin 1% DMSO (final concentration).
1. Add membranes to start incubation. Vortex and incubate at 21° C. GRP assay=90 min; NMB assay=60 min.
2. Terminate reactions by rapid filtration onto GF\C filters or GF\C Unifilter plates presoaked in 0.2% PEI for >1 hour) using the appropriate Brandel cell harvester.
3. Wash with ice-cold HEPES HCl (50 mM, pH 7.4 at 21° C.).
Filter mats 6×1 ml total wash volume
Unifilter plates 2×1 ml total wash volume
4. Unifilters are dried at 50° C. for 60 minutes. Add 50 μl Microscint-0, Seal plates with Top-Seal A and count using TopCount NXT.
as §1

T1 sequence (P28336 whole entry): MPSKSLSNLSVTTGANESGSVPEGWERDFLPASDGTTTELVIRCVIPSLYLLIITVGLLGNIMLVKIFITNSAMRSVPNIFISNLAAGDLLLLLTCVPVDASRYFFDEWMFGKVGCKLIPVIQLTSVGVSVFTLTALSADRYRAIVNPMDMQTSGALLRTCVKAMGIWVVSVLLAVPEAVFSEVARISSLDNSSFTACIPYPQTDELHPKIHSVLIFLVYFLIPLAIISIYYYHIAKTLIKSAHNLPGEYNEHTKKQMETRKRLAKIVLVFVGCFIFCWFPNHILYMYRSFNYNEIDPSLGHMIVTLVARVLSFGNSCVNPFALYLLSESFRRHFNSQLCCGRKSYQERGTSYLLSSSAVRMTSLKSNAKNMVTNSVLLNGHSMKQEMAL

| Ki [1] | Ki [2] | melting point | Compound |
| --- | --- | --- | --- |
| 0.082 µM | 3.59 µM |  | O=C(NCc1cccc(Cl)c1Cl)N(Cc1ccc(O)cc1)CC1(c2ccccn2)CCCCC1 [Example 1, 3-(2,3-Dichloro-benzyl)-1-(4-hydroxy-benzyl)-1-(1-pyridin-2-yl-cyclohexylmethyl)-urea] |
|  |  | 150 to 152 °C | CC(C)c1cccc(C(C)C)c1NC(=O)N(Cc1ccccc1)CC1(c2nnnn2C)CCCCC1 [Example 180, 1-Benzyl-3-(2,6-diisopropyl-phenyl)-1-[1-(1-methyl-1H-tetrazol-5-yl)-cyclohexylmethyl]-urea] |
|  |  | 112.5 to 113.5 °C | CC(C)c1cccc(C(C)C)c1NC(=O)N(Cc1ccccc1)CC1(c2ncccn2)CCCCC1 [Example 181, 1-Benzyl-3-(2,6-diisopropyl-phenyl)-1-(1-pyrimidin-2-yl-cyclohexylmethyl)-urea] |
|  |  | 102 to 103 °C | Cc1cccc(CNC(=O)N(CC2CC2)CC2(c3ccccn3)CCCCC2)c1C [Example 184, 1-Cyclopropylmethyl-3-(2,3-dimethyl-benzyl)-1-(1-pyridin-2-yl-cyclohexylmethyl)-urea] |
